Data set [1] deals with Molt4 (human acute lymphoblastic leukemia). The conditions noted are these: Molt4, 48-hour exposure; read-out: CI50 (the source's name); cited from earlier work.
For data set [2], the system named is uterine cervical cancer cell line HeLa. Put plainly: Viability assay (CellTiter 96 MTS), HeLa cells. The class given is cell-based, human. The method, then:
To further determine the effect of the formulation on cell viability, the calorimetric method of tetrazolium salt reduction (CellTiter 96®) was used to establish a linear relationship between the number of metabolically active cells and the absorption intensity. […] 2500 HeLa cells were seeded per well, in a 96-well microplate, and the cells were incubated with 100 μL of Dulbecco's Modified Eagle Medium (DMEM) culture medium enriched with 10% fetal bovine serum (FBS), at 37° C. and 5% CO2. The day after seeding, the 100 μL of medium was removed, and it was replaced by 80 μL of clean culture medium. Then 20 μL of a treatment was applied, and the cells were incubated under the same temperature and CO2 conditions. 24 hours after the treatment was applied, the treatment was removed, the cells were subsequently washed three (3) times with phosphate-buffered saline (PBS), and 80 μL of medium without indicator was added to the cells and 20 μL of MTS. The cells were incubated for 1 hour, and the absorbance was measured at a wavelength of 490 nm in a microplate reader. […] Each assay was performed in triplicate. In addition, within each assay the same treatment was applied to a minimum of 5 wells.

A further data set has as its system HeLa. The conditions noted are these: read-out: CI50 (the source's name); cited from earlier work.
For data set [3], the system named is Metastatic B16F10 murine melanoma cells. The data set can be described thus: Viability assay (MTS), B16F10 cells. The class given is cell-based. The note with it: Mus musculus, B16-F10, B16F10, 24 h treatment, read-out: IC50, decrease of proliferation/viability.
Description: Metastatic B16F10 murine melanoma cells were cultured in RPMI 1640 (Roswell Park Memorial Institute) supplemented with 10% FBS, 2 mM glutamine, and antibiotics (100 U/mL penicillin and 100 μg/mL streptomycin) at 37° C. in 5% CO2.
The cultured metastatic B16F10 murine melanoma cells and cultured human embryonic kidney cells (HEK293T) were seeded in 96-well plates at a density of 1×10^4 cells per well and incubated for 24 h in culture medium. […] 2% Sodium dodecyl sulfate (SDS) and a standard cell medium were used as positive and negative cell controls, respectively. Cell proliferation was evaluated by the MTS® assay, according to the manufacturer's (Promega, Madison, WI) instructions. Absorbance was evaluated at 490 nm removing any background absorbance (620 nm) in plate reader (Tecan Infinite 200 pro NanoQuant).
In the next data set the test system is B16F10 (murine melanoma). The conditions noted are these: B16F10, 48-hour exposure; read-out: CI50 (the source's name); cited from earlier work.
The subject of another data set is K562 (erythroleukemia). The note with it: K562, 48-hour exposure; read-out: CI50 (the source's name); cited from earlier work.
A short description of data set [4]: Persistence of curcumin fluorescence at the treatment site after tumor excision. The class given is in vivo, mice. The note with it: post-surgery.
Data set [5] deals with U937 (monoblastic leukemia). The note with it: U937, 48-hour exposure; read-out: CI50 (the source's name); cited from earlier work.
The test system of data set [6] is HL-60 (promyelocytic leukemia). The conditions noted are these: HL-60, 48-hour exposure; read-out: CI50 (the source's name); cited from earlier work.
The next data set has as its system B16F10 cells. The data set can be described thus: Matrigel invasion assay. The class given is cell-based, murine. The note with it: normalized to untreated control. The method, then:
B16F10 cells (5×10^4) were seeded, allowed to grow for 24 h, and treated with CUR-NEM, CUR and controls. Then, serum-starved cells (2×10^5) were seeded (24 h) over 8 μm-porous inserts covered with Matrigel (Matrigel Invasion Chamber 8.0 lm; BD Biosciences Bedford, MA, USA). […] The membranes were mounted in Mowiol, and observed under a light microscope. At least 10 fields were evaluated (at 40× magnification) to determine the number of cells per field. The values obtained were normalized to those obtained for cells without treatment (control). Averages of values from three independent experiments are shown (mean±SEM). Statistically significant differences compared with the corresponding control group are indicated (**P<0.001; ****<0.0001). Metastasis is a complex process that is known to require migration and invasion of malignant cells.

These results are taken from patent publication US11813355B2, “Curcumin-loaded nanoemulsions, method of manufacture, and method of preventive treatment using the same” (UNIVERSIDAD DE CHILE, priority 2016, dated 2023).

≈ marks a conversion by molar mass, not a printed value.

As for `COc1cc(C=CC(=O)CC(=O)C=Cc2ccc(O)c(OC)c2)ccc1O` [curcumin, 1,7-bis(4-hydroxy-3methoxyphenyl)-1,6-heptadien-3,5-dione], the IC50 in data set [1] was about 14.4 µM; in [2] (Homo sapiens, 24-hour exposure, MTS, read-out: CI50 (the source's name)), 61.8 ± 18.1 µM; in the data set on HeLa, 13.3 µM; in data set [3] it was 34.8 ± 7.5 µg/mL (≈ 94.5 µM); with B16F10 (murine melanoma), about 3.5 µM; in the data set on K562 (erythroleukemia) it was about 38.7 µM. Also, the IC50 in [5] was about 30.1 µM; in data set [6] it was about 15.7 µM. In [2] (after 24-hour exposure), the “Concentration of maximum effectiveness (cytotoxicity)” value was 50 µM. The “Curcumin fluorescence over basal levels, four (4) days after treatment” value in [4] is “not detectable”. In the data set on B16F10 cells, this compound came in with a Reduction in invasiveness of 10 fold.
